# Several values for one entry are separate records, joined by “and”; a condition that tells them apart may be missing. Equal values may be shown once.
# System: 991263-137-R1-J2-PDC complex spheroid viability
# Assay: Anticancer human tumor 991263-137-R1-J2-PDC patient-derived colon adenocarcinoma cell line growth inhibition [POLQ]
# Conditions: for viability, T/C: stronger effect = lower value
# Experimental: Multicellular complex tumor spheroid response to Polymerase (POL) inhibitors (novobiocin, ART-558, RP6685) in combination with a variety of drugs and investigational agents in selected tumor cell lines
# The POL inhibitors (novobiocin, ART-558, and RP6685) were evaluated both individually and in combination with standard of care and investigational anticancer small molecules within a complex spheroid model of solid tumors. . Complex spheroids include a stromal component modeled by human endothelial cells (HUVEC) and fibroblasts modeled by human mesenchymal stem cells (MSCs). The concentration ranges selected for each drug and investigational agent were based upon clinically achievable concentrations if the clinical Cmax of the agent was known.
# Compounds. The drugs and investigational agents: novobiocin (NSC847541), ART-558 (NSC835418), RP-6685 (NSC848927), peposertib (NSC802822), ceralasertib (NSC780249), elimusertib (NSC800525), camonsertib (NSC841442), AZD-1390 (NSC803789), olaparib (NSC753686), talazoparib (NSC767125), rucaparib (NSC756644), sotorasib (NSC818433), MRTX-1133 (NSC836407), SN-38 (NSC673596), topotecan (NSC609699), epotoside (NSC141540), doxorubicin (NSC123127), gemcitabine (NSC613327), 5-fluorouracil (NSC19893), paclitaxel (NSC125973), vemurafenib (NSC761431), MSA-2 (NSC828583), SN-011 (NSC837082), adavosertib (NSC754352), prexasertib (NSC758257), carboplatin (NSC241240) and oxaliplatin (NSC266046), were obtained from the National Cancer Institute (NCI) Developmental Therapeutics Program Chemical Repository (21). The FDA-approved anticancer drug set is available from the Developmental Therapeutics Program at https://dtp.cancer.gov/organization/dscb/obtaining/. […] The stock solutions were prepared in dimethyl sulfoxide (DMSO, Sigma-Aldrich, St. Louis, MO, cat. D2650), except for the platinum compounds which were prepared in saline (Quality Biological, Gaithersburg, MD, cat. 114-055-101), at 800-fold the tested concentration and stored at -70 degrees C prior to their use. All drugs and investigational agents were tested over a range starting from a high concentration at or near the clinical Cmax and decreasing in half-log increments. If the clinical Cmax for an agent had not been determined, the highest concentration tested was 10 microM, except for SN-38, which was tested at a high concentration of 1 microM.
# Cell Culture. All cells were maintained in an incubator at 37 degrees C and 5% CO2 with 95% humidity. The PDC lines were cultured according to standard operating procedures established by the NCI PDMR (https://pdmr.cancer.gov). Table 3 of the manuscript, lists the cell lines along with the number of the three cell types plated to form the mct-spheroids and media for tumor cell growth. After thawing, all PDC lines, except 997537-175-T-J1-PDC and 415267-285-R-J2-PDC, were cultured in Matrigel-coated flasks prepared with a working solution of 1X Ham's F-12 nutrient mix, without supplementation (Thermo Fisher Scientific, cat. 11765054), 100 U/mL penicillin-streptomycin (Thermo Fisher Scientific, cat. 15140122), and 2.5% Matrigel (Corning Inc., Corning, NY, cat. 354248) for the first three passages. The two PDC lines 997537-175-T-J1-PDC and 415267-285-R-J2-PDC were cultured on uncoated flasks. The 857933-349-R-J2-PDC line was cultured in 6C/Colon 1B media containing advanced DMEM/F-12 (Thermo Fisher Scientific, cat. 12634028), 10 mM HEPES (Thermo Fisher Scientific, cat. 15630080), 1X GlutaMAX supplement (Thermo Fisher Scientific, cat. 35050061), 0.1 mg/mL primocin (InvivoGen, San Diego, CA, cat. ant-pm-2), 10% defined fetal bovine serum, heat inactivated (HyClone Laboratories Inc., Logan, UT, cat. SH30070.03HI), 50% L-WRN conditioned media (ATCC, cat. CRL-3276), 1.25 mM N-Acetyl-L-cysteine (Sigma-Aldrich, cat. A9165), 10 mM nicotinamide (Sigma-Aldrich, cat. N0636), 1X B-27 supplement (Thermo Fisher Scientific, cat. 17504044), 1X N-2 supplement (Thermo Fisher Scientific, cat. […]
# [1] = curve of first compound, second compound 0.0316 µM
# [2] = curve of first compound, second compound 0.1 µM
# [3] = curve of first compound, second compound 0.316 µM
# [4] = curve of first compound, second compound 1 µM
# [5] = curve of first compound, second compound 3.16 µM
# [6] = curve of first compound, second compound 10 µM
# [7] = second compound 0.0316 µM, first compound 0.0316 µM
# [8] = second compound 0.0316 µM, first compound 0.1 µM
# [9] = second compound 0.0316 µM, first compound 0.316 µM
# [10] = second compound 0.0316 µM, first compound 1 µM
# [11] = second compound 0.1 µM, first compound 0.0316 µM
# [12] = second compound 0.1 µM, first compound 0.1 µM
# [13] = second compound 0.1 µM, first compound 0.316 µM
# [14] = second compound 0.1 µM, first compound 1 µM
# [15] = second compound 0.316 µM, first compound 0.0316 µM
# [16] = second compound 0.316 µM, first compound 0.1 µM
# [17] = second compound 0.316 µM, first compound 0.316 µM
# [18] = second compound 0.316 µM, first compound 1 µM
# [19] = second compound 1 µM, first compound 0.0316 µM
# [20] = second compound 1 µM, first compound 0.1 µM
# [21] = second compound 1 µM, first compound 0.316 µM
# [22] = second compound 1 µM, first compound 1 µM
# [23] = second compound 3.16 µM, first compound 0.0316 µM
# [24] = second compound 3.16 µM, first compound 0.1 µM
# [25] = second compound 3.16 µM, first compound 0.316 µM
# [26] = second compound 3.16 µM, first compound 1 µM
# [27] = second compound 10 µM, first compound 0.0316 µM
# [28] = second compound 10 µM, first compound 0.1 µM
# [29] = second compound 10 µM, first compound 0.316 µM
# [30] = second compound 10 µM, first compound 1 µM
# 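Further: spheroids exposed to compounds for 7 days before readout.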
# 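Wherever viability, T/C is given: 100% = DMSO vehicle control viability.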
smiles,measurement,setting,value
CC1COCCN1c1cc(-c2ccnn2C)c2ccnc(-c3ccn[nH]3)c2n1 (stereo not given) + Nc1ccc(C#CCN(C(=O)Cc2ncc(C(F)(F)F)cc2C(F)(F)F)c2ccc(F)cc2)nn1,IC50,[1],1140 nM
same,IC50,[2],1610 nM
same,IC50,[3],1150 nM
same,IC50,[4],1400 nM
same,IC50,[5],1110 nM
same,IC50,[6],918 nM
same,"viability, T/C",[7],105%
same,"viability, T/C",[8],93.8%
same,"viability, T/C",[9],75.6%
same,"viability, T/C",[10],50.6%
same,"viability, T/C","second compound 0.0316 µM, first compound 3.16 µM",38.6%
same,"viability, T/C","second compound 0.0316 µM, first compound 10 µM",32.5%
same,"viability, T/C",[11],105%
same,"viability, T/C",[12],88.7%
same,"viability, T/C",[13],69.5%
same,"viability, T/C",[14],58.4%
same,"viability, T/C","second compound 0.1 µM, first compound 3.16 µM",39.9%
same,"viability, T/C","second compound 0.1 µM, first compound 10 µM",32.5%
same,"viability, T/C",[15],99.4%
same,"viability, T/C",[16],107%
same,"viability, T/C",[17],74.4%
same,"viability, T/C",[18],53.7%
same,"viability, T/C","second compound 0.316 µM, first compound 3.16 µM",40.6%
same,"viability, T/C","second compound 0.316 µM, first compound 10 µM",32%
same,"viability, T/C",[19],108%
same,"viability, T/C",[20],94%
same,"viability, T/C",[21],75.5%
same,"viability, T/C",[22],53.4%
same,"viability, T/C","second compound 1 µM, first compound 3.16 µM",40.4%
same,"viability, T/C","second compound 1 µM, first compound 10 µM",31.1%
same,"viability, T/C",[23],103%
same,"viability, T/C",[24],95.8%
same,"viability, T/C",[25],72.5%
same,"viability, T/C",[26],53%
same,"viability, T/C","second compound 3.16 µM, first compound 3.16 µM",35.8%
same,"viability, T/C","second compound 3.16 µM, first compound 10 µM",31.1%
same,"viability, T/C",[27],93.9%
same,"viability, T/C",[28],88.2%
same,"viability, T/C",[29],73%
same,"viability, T/C",[30],46.2%
same,"viability, T/C","second compound 10 µM, first compound 3.16 µM",42.6%
same,"viability, T/C","second compound 10 µM, first compound 10 µM",33.8%
COc1cc(C2c3cc4c(cc3C(OC3OC5COC(C)OC5C(O)C3O)C3COC(=O)C23)OCO4)cc(OC)c1O (stereo not given),"viability, T/C",compound 0.0316 µM,105% and 96.4% and 99.6%
same,"viability, T/C",compound 0.1 µM,86.2% and 94.5% and 92.4%
same,"viability, T/C",compound 1 µM,97.8% and 95.9% and 92.5%
same,"viability, T/C",compound 3.16 µM,77.9% and 88.6% and 71.9%
same,"viability, T/C",compound 10 µM,69.9% and 77% and 77.1%
same,IC50,curve of compound,> 10000 nM
COc1cccc(OCCCN)c1-c1cc(Nc2cnc(C#N)cn2)n[nH]1 + COC1C(OC(N)=O)C(O)C(Oc2ccc3c(O)c(NC(=O)c4ccc(O)c(CC=C(C)C)c4)c(=O)oc3c2C)OC1(C)C,IC50,[1],276 nM
same,IC50,[2],421 nM
same,IC50,[3],338 nM
same,IC50,[4],459 nM
same,IC50,[5],491 nM
same,IC50,[6],513 nM
same,"viability, T/C","second compound 0.0316 µM, first compound 0.00316 µM",111%
same,"viability, T/C","second compound 0.0316 µM, first compound 0.01 µM",109%
same,"viability, T/C",[7],84.4%
same,"viability, T/C",[8],63.6%
same,"viability, T/C",[9],52.1%
same,"viability, T/C",[10],35.6%
same,"viability, T/C","second compound 0.1 µM, first compound 0.00316 µM",97.3%
same,"viability, T/C","second compound 0.1 µM, first compound 0.01 µM",89.4%
same,"viability, T/C",[11],92.9%
same,"viability, T/C",[12],69.2%
same,"viability, T/C",[13],59.6%
same,"viability, T/C",[14],28.7%
same,"viability, T/C","second compound 0.316 µM, first compound 0.00316 µM",99.3%
same,"viability, T/C","second compound 0.316 µM, first compound 0.01 µM",104%
same,"viability, T/C",[15],102%
same,"viability, T/C",[16],77.8%
same,"viability, T/C",[17],53.2%
same,"viability, T/C",[18],29.6%
same,"viability, T/C","second compound 1 µM, first compound 0.00316 µM",111%
same,"viability, T/C","second compound 1 µM, first compound 0.01 µM",80%
same,"viability, T/C",[19],80.6%
same,"viability, T/C",[20],75.8%
same,"viability, T/C",[21],61.4%
same,"viability, T/C",[22],33.7%
same,"viability, T/C","second compound 3.16 µM, first compound 0.00316 µM",109%
same,"viability, T/C","second compound 3.16 µM, first compound 0.01 µM",74.2%
same,"viability, T/C",[23],91.9%
same,"viability, T/C",[24],87.5%
same,"viability, T/C",[25],59.3%
same,"viability, T/C",[26],34.8%
same,"viability, T/C","second compound 10 µM, first compound 0.00316 µM",75.8%
same,"viability, T/C","second compound 10 µM, first compound 0.01 µM",95.2%
same,"viability, T/C",[27],90%
same,"viability, T/C",[28],76.9%
same,"viability, T/C",[29],59.3%
same,"viability, T/C",[30],37.9%

# Reference: PubChem BioAssay AID1963828 (Molecular Pharmacology Branch, DTP, NCI, 2024)
